Measured values as given in patent publication US8569292B2, “Cyclic inhibitors of 11β-hydroxysteroid dehydrogenase 1” (Vitae Pharmaceuticals, Inc., priority 2008, dated 2013).

Columns and labels:
11β-HSD1 [1] = target: T1, 11β-HSD1 (Homo sapiens, UniProt P28845); test: Biological Test Example 4: microsomal 11β-HSD1 in the presence of 50% human plasma; settings: for Shift: IC50 in Test Example 4 divided by IC50 in Test Example 1
11β-HSD1 [2] = target: T1, 11β-HSD1; test: biochemical; settings: for inhibition at 0.1 µM: read-out: Average % inhibition at 100 nM
[3] = Biological Test Example 1 IC50 (nM)
[4] = IC50 Range, Biological Test Example 1

T1 sequence (P28845 whole entry): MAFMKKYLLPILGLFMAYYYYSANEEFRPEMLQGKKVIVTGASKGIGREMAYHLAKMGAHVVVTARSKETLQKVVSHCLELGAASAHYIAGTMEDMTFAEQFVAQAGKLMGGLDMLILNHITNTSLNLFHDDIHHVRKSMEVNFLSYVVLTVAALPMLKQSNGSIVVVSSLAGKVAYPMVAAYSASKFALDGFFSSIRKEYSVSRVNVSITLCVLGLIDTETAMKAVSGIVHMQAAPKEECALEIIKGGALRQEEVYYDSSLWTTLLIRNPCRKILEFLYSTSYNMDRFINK

Compound	IC50 (11β-HSD1 [1]) [nM]	Shift (11β-HSD1 [1])	IC50 (11β-HSD1 [2]; [3]) [nM]	IC50 (11β-HSD1 [2]; [4]) [nM]	inhibition at 0.1 µM (11β-HSD1 [2]) [%]
Cc1cccc(-c2ccc([C@H](C)N3CC[C@](CCCO)(c4ccccc4)OC3=O)cc2)n1 [EXAMPLE 90, (R)-6-(3-hydroxypropyl)-3-((S)-1-(4-(6-methylpyridin-2-yl)phenyl)ethyl)-6-phenyl-1,3-oxazinan-2-one]	13.5	25.5	0.5	< 100	96.7
Cc1cc(-c2ccc([C@H](C)N3CC[C@](CCCN(C)S(C)(=O)=O)(c4ccccc4)OC3=O)cc2)ccn1 [EXAMPLE 119, N-methyl-N-(3-((R)-3-((S)-1-(4-(2-methylpyridin-4-yl)phenyl)ethyl)-2-oxo-6-phenyl-1,3-oxazinan-6-yl)propyl)methanesulfonamide]	29.7	15.1	2	< 100	90.8
C[C@@H](c1ccc(-c2ccccn2)cc1)N1CC[C@](CCO)(c2ccccc2)OC1=O [EXAMPLE 85, (S)-6-(2-hydroxyethyl)-6-phenyl-3-((S)-1-(4-(pyridin-2-yl)phenyl)ethyl)-1,3-oxazinan-2-one]	12.9	–	0.9	< 100	94.3
Cc1cc(-c2ccc([C@H](C)N3CC[C@](CCC(=O)O)(c4ccc(F)cc4)OC3=O)cc2)ccn1 [EXAMPLE 77, 3-((R)-6-(4-fluorophenyl)-3-((S)-1-(4-(2-methylpyridin-4-yl)phenyl)ethyl)-2-oxo-1,3-oxazinan-6-yl)propanoic acid]	114	3.0	38.1	< 100	79.9
C[C@@H](c1ccc(-c2ccccn2)cc1)N1CC[C@](CCO)(c2ccc(F)cc2)OC1=O [EXAMPLE 57, (S)-6-(4-fluorophenyl)-6-(2-hydroxyethyl)-3-((S)-1-(4-(pyridin-2-yl)phenyl)ethyl)-1,3-oxazinan-2-one]	19.2	18.8	1	< 100	99.4
C[C@@H](c1ccc(-c2cccc(N(C)C)n2)cc1)N1CC[C@](CC(C)(C)O)(c2ccccc2)OC1=O [EXAMPLE 30, (S)-3-((S)-1-(4-(6-(dimethylamino)pyridin-2-yl)phenyl)ethyl)-6-(2-hydroxy-2-methylpropyl)-6-phenyl-1,3-oxazinan-2-one]	21.8	24.0	0.9	< 100	98.1
C[C@@H](c1ccc(-c2ccncc2)cc1)N1CC[C@](CCC(N)=O)(c2ccccc2)OC1=O [EXAMPLE 48, 3-((R)-2-oxo-6-phenyl-3-((S)-1-(4-(pyridin-4-yl)phenyl)ethyl)-1,3-oxazinan-6-yl)propanamide]	3.9	–	1	< 100	94.3
C[C@@H](c1ccc(-c2ccc(C#N)cn2)cc1)N1CC[C@](CCCO)(c2ccccc2)OC1=O [EXAMPLE 110, 6-(4-((S)-1-((R)-6-(3-hydroxypropyl)-2-oxo-6-phenyl-1,3-oxazinan-3-yl)ethyl)phenyl)nicotinonitrile]	3.7	7.7	0.5	< 100	93.9
Cc1ccc(-c2ccc([C@H](C)N3CC[C@](CCCO)(c4ccc(F)cc4)OC3=O)cc2)nn1 [EXAMPLE 114, (R)-6-(4-fluorophenyl)-6-(3-hydroxypropyl)-3-((S)-1-(4-(6-methylpyridazin-3-yl)phenyl)ethyl)-1,3-oxazinan-2-one]	3.9	4.5	0.9	< 100	98.9
Cc1nc(C)c(-c2ccc([C@H](C)N3CC[C@](CCC(N)=O)(c4ccc(F)cc4)OC3=O)cc2)s1 [EXAMPLE 84, 3-((R)-3-((S)-1-(4-(2,4-dimethylthiazol-5-yl)phenyl)ethyl)-6-(4-fluorophenyl)-2-oxo-1,3-oxazinan-6-yl)propanamide]	12.4	3.5	3.5	< 100	93.3
Cc1nccn1-c1ncc(-c2ccc([C@H](C)N3CC[C@](CC(C)(C)O)(c4ccccc4)OC3=O)cc2)cn1 [EXAMPLE 27, (S)-6-(2-hydroxy-2-methylpropyl)-3-((S)-1-(4-(2-(2-methyl-1H-imidazol-1-yl)pyrimidin-5-yl)phenyl)ethyl)-6-phenyl-1,3-oxazinan-2-one]	4.7	3.8	1.2	< 100	96.8
COc1ccc(-c2ccc([C@H](C)N3CC[C@](CCC(N)=O)(c4ccc(F)cc4)OC3=O)cc2)cn1 [EXAMPLE 66, 3-((R)-6-(4-fluorophenyl)-3-((S)-1-(4-(6-methoxypyridin-3-yl)phenyl)ethyl)-2-oxo-1,3-oxazinan-6-yl)propanamide]	9.7	–	1.3	< 100	95.6
